In US20050287203A1, “Formulation comprising testosteron undecanoate and castor oil” (priority 2002, published 2005):

Experiment: concentration of TU attainable in castor oil solution
Assay type: physicochemical
Conditions: liquid carrier castor oil
Protocol: The choice of castor oil as the liquid carrier, in conjunction with the choice of testosterone undecanoate as the androgen, makes for a solution which can comprise about 200-250 mg of TU per ml. This amounts to approximately […] of testosterone per ml. This is a novel achievement for any orally administerable solution of testosterone in any form. The invention, in one aspect, therefore includes a pharmaceutical formulation in the form of a capsule for oral administration comprising testosterone undecanoate as the active ingredient dissolved in a pharmaceutically acceptable liquid carrier in a concentration of 200-250 mg/ml.

**Q.** Which “amount of TU the solution in castor oil can comprise” value does the source give for `CCCCCCCCCCC(=O)O[C@H]1CC[C@H]2[C@@H]3CCC4=CC(=O)CC[C@]4(C)[C@H]3CC[C@]12C` [testosterone undecanoate] here?
**A.** 200-250 mg of TU per ml
